Earlier results in US20060074100A1, “Histone deacetylase inhibitors for the treatment of ocular neovascular or edematous disorders and diseases” (priority 2002, published 2006).

Experiments:
tumors = settings: animal models
cancer cell [1] = settings: in vitro
[2] = phase I clinical trials
cancer cell [3] = test system: cancer cell
[4] = test system: corneal neovascularization; settings: in combination with a beta cyclodextrin

Compound: O=C(CCCCCCC(=O)Nc1ccccc1)NO [SAHA, suberoylanilide hydroxamic acid]
- tumor size (tumors): shrink tumors in animal models
- cancer cell growth (cancer cell [1]): arrest cancer cell growth in vitro
- dose-limiting toxicity [2]: almost no dose-limiting toxicity
- suppression of white blood cell production [2]: no suppression of white blood cell production
- induction of cancer cell differentiation (cancer cell [3]): potent inducer of cancer cell differentiation

Compound: C[C@@H]1C[C@H]2[C@@H]3C[C@H](F)C4=CC(=O)CC[C@]4(C)C3=CC[C@]2(C)[C@@]1(O)C(=O)CO [U-72,745G]
- inhibition of corneal neovascularization [4]: inhibit corneal neovascularization

Compound: C[C@]12CCC(=O)C=C1CC[C@@H]1[C@@H]2[C@@H](O)C[C@@]2(C)[C@H]1CC[C@]2(O)C(=O)CO [hydrocortisone]
- inhibition of corneal neovascularization [4]: inhibit corneal neovascularization

Compound: C[C@]12CC[C@@H](O)C[C@H]1CC[C@@H]1[C@@H]2CC[C@@]2(C)[C@H]1CC[C@]2(O)C(=O)CO [tetrahydrocortisol-S]
- inhibition of corneal neovascularization [4]: inhibit corneal neovascularization
